The structures appear in SMILES notation.

Common to all, as to test: Antibacterial activity, microbroth dilution method (MIC)
Test [1] relates to control Gram-negative E. coli 25922 strain. The test is classed as cell-based, Escherichia coli. To be noted: Escherichia coli. An excerpt: (§1) The antibacterial activity from a microbroth dilution method may be presented as the minimum inhibitory concentration (MIC in μg/mL). The MIC value is the lowest concentration of drug which prevents macroscopically visible growth under test conditions.
(§2) Antibacterial activity of test compounds against the super sensitive Gram-negative Escherichia coli (E. coli) BAS849 bacterium, the control Gram-negative E. coli 25922 strain and the Gram-positive Staphylococcus aureus (S. aureus) 29213 bacterium are shown in Table 1.

Test [2] deals with super sensitive Gram-negative Escherichia coli (E. coli) BAS849. In kind it is cell-based. The conditions noted are these: Escherichia coli; super sensitive Gram-negative E. coli BAS849; microbroth dilution; read-out: MIC, E. coli BAS849.
From the text: as §1, §2

Test [3] deals with Gram-positive Staphylococcus aureus (S. aureus) 29213. The test is classed as cell-based. To be noted: Staphylococcus aureus, Gram-positive S. aureus 29213.
From the text: as §1, §2

In the case of `CC(C)NCc1cc2cc3c(cc2n1C)CCCc1cc(C(=O)O)c(=O)[nH]c1-3.Cl` [Cpd 55, 10-((isopropylamino)methyl)-9-methyl-2-oxo-1,2,5,6,7,9-hexahydropyrido[3′,2′:6,7]cyclohepta[1,2-f]indole-3-carboxylic acid hydrochloride], the figures for the minimum inhibitory concentration (MIC) in test [1], in test [2] and in test [3] were 1 to 3.5 µg/mL, < 1 µg/mL and 12.5 to 150 µg/mL, respectively.

With `CC(C)CNCc1cc2cc3c(cc2n1C)CCCc1c-3[nH]c(=O)c(C(=O)O)c1O.Cl` [Cpd 154, 4-hydroxy-10-((isobutylamino)methyl)-9-methyl-2-oxo-1,2,5,6,7,9-hexahydropyrido[3′,2′:6,7]cyclohepta[1,2-f]indole-3-carboxylic acid hydrochloride], the figures for the minimal inhibitory concentration (MIC) in test [1], in test [2] and in test [3] were < 1 µg/mL, < 1 µg/mL and 3.5 to 12.5 µg/mL, respectively.

Consider `COCCNCc1cc2cc3c(cc2n1C)CCCc1c-3[nH]c(=O)c(C(=O)O)c1O.Cl` [Cpd 148, 4-hydroxy-10-(((2-methoxyethyl)amino)methyl)-9-methyl-2-oxo-1,2,5,6,7,9-hexahydropyrido[3′,2′:6,7]cyclohepta[1,2-f]indole-3-carboxylic acid hydrochloride], for which the values for the MIC in test [1], in test [2] and in test [3] were < 1 µg/mL, < 1 µg/mL and 12.5 to 150 µg/mL, respectively.

On to `Cl.Cn1c(CN2CCC2)cc2cc3c(cc21)OCCc1c-3[nH]c(=O)c(C(=O)O)c1O` [Cpd 91, 10-(azetidin-1-ylmethyl)-4-hydroxy-9-methyl-2-oxo-2,5,6,9-tetrahydro-1H-pyrido[2′,3′:4,5]oxepino[3,2-f]indole-3-carboxylic acid hydrochloride], for which the minimal inhibitory concentration (MIC) (as a rule, the least concentration at which growth counts as inhibited) in test [1] was < 1 µg/mL; in test [2], < 1 µg/mL; in test [3], 12.5 to 150 µg/mL.

For the molecule `CC1CCc2c([nH]c(=O)c(C(=O)O)c2O)-c2cc3cc(CNC4(C)CC4)n(C)c3cc21.Cl` (stereo not drawn) [Cpd 66, 4-hydroxy-7,9-dimethyl-10-(((1-methylcyclopropyl)amino)methyl)-2-oxo-1,2,5,6,7,9-hexahydropyrido[3′,2′:6,7]cyclohepta[1,2-f]indole-3-carboxylic acid hydrochloride], the minimal inhibitory concentration (MIC) lay within 12.5 to 150 µg/mL in test [1], 1 to 3.5 µg/mL in test [2] and 3.5 to 12.5 µg/mL in test [3].

For `CN1CCN(c2ccc3c(c2)CCCc2c-3[nH]c(=O)c(C(=O)O)c2O)CC1.Cl` [Cpd 120, 4-hydroxy-9-(4-methylpiperazin-1-yl)-2-oxo-2,5,6,7-tetrahydro-1H-benzo[6,7]cyclohepta[1,2-b]pyridine-3-carboxylic acid hydrochloride], the MIC in test [1] lay within 12.5 to 150 µg/mL; in test [2] it was 1 to 3.5 µg/mL; in test [3], 12.5 to 150 µg/mL.

Regarding `CC1CCc2cc(N3CCC(N(C)C)C3)ccc2-c2[nH]c(=O)c(C(=O)O)c(O)c21.Cl` (stereo not drawn) [Cpd 12, 9-(3-(dimethylamino)pyrrolidin-1-yl)-4-hydroxy-5-methyl-2-oxo-2,5,6,7-tetrahydro-1H-benzo[6,7]cyclohepta[1,2-b]pyridine-3-carboxylic acid hydrochloride], the minimum inhibitory concentration (MIC) was in the range of 12.5 to 150 µg/mL in test [1], 1 to 3.5 µg/mL in test [2] and 12.5 to 150 µg/mL in test [3].

For the molecule `Cl.Cl.Cn1c(CNCCN)cc2cc3c(cc21)OCCc1c-3[nH]c(=O)c(C(=O)O)c1O` [Cpd 180, 10-(((2-aminoethyl)amino)methyl)-4-hydroxy-9-methyl-2-oxo-2,5,6,9-tetrahydro-1H-pyrido[2′,3′:4,5]oxepino[3,2-f]indole-3-carboxylic acid dihydrochloride], the results for the minimum inhibitory concentration (MIC) in test [1], in test [2] and in test [3] were 12.5 to 150 µg/mL, 3.5 to 12.5 µg/mL and 12.5 to 150 µg/mL, respectively.

For the molecule `CN(C)C1CCN(c2ccc3c(c2)NCCc2c-3[nH]c(=O)c(C(=O)O)c2O)C1.Cl` (stereo not drawn) [Cpd 95, 9-(3-(dimethylamino)pyrrolidin-1-yl)-4-hydroxy-2-oxo-2,5,6,7-tetrahydro-1H-benzo[b]pyrido[2,3-d]azepine-3-carboxylic acid hydrochloride], the minimal inhibitory concentration (MIC) is 3.5 to 12.5 µg/mL in test [1], 3.5 to 12.5 µg/mL in test [2] and 12.5 to 150 µg/mL in test [3].

The values above are taken from patent publication US20150038438A1, “ANTIBACTERIAL COMPOUNDS AND METHODS FOR USE” (PTC THERAPEUTICS, INC., priority 2011, published 2015).
